The source of these data is patent US5932707A, “Thioether-containing metal chelating compounds” (Nycomed Amersham plc, priority 1993, dated 1999).

In series [1] the test system is V79-379A Chinese hamster cells. Put plainly: Hypoxic and oxic binding of 99mTc labelled compounds to cells in vitro. It counts as cell-based. The following applies: 99mTc complex; for Oxic SN (supernatant): air +5% CO2; for Oxic pellet: air +5% CO2, 37° C.; for Oxic pellet / Hypoxic pellet: 10^6 cells per pellet; for Hypoxic SN (supernatant): nitrogen +5% CO2; for Hypoxic pellet: nitrogen +5% CO2, 37° C. On the procedure:
V79-379A Chinese hamster cells were harvested from exponential suspension culture and resuspended at 1.1×10^6 cells cm^-3 in Bagle's MEM. 20 cm^3 of cells were transferred to small spinner vessels and gassed with either air +5% CO2 (oxic) or nitrogen +5% CO2 (Hypoxic) at 37° C. After 30 minutes, between 0.5 cm^3 and 1 cm^3 of ^99m Tc labelled compound was added. At timed intervals 1 cm^3 of cell suspension was withdrawn from each flask and chilled on ice in small polystyrene centrifuge tubes. The cells were centrifuged and washed three times in ice-cold medium (Eagle's MEM) to give constant counts in the cell pellet. The pellets were counted in LKB 1282 Compugamma counter. The initial supernatant was diluted 1 in 100 with saline and 1 cm^3 was counted. All samples were counted at the end of the incubation period and counts have been corrected for decay during counting but not for decay during incubation.
Attempts were made to decrease the amount of non-specific binding by incubating the cell samples in a large volume of medium for one hour at 37° C. under oxic conditions.

Series [2] in a line: Human plasma protein binding of technetium complexes (ultrafiltration). It counts as in vitro ADME. The following applies: technetium complex, read-out: PPB % bound (converted). On the procedure: Human plasma protein binding was determined by ultrafiltration^(9), such that the percentage of complex bound is an indicator of the affinity of binding.
The plasma protein binding figure obtained for a given compound is highly dependent on the method of determination used^(10). Thus equilibrium dialysis measurement may lead to higher PPB figures than those obtained via ultrafiltration due to longer incubation times. Use of serum rather than plasma may also underestimate the true extent of binding. There are also significant interspecies differences.

Another series has as its system human erythrocyte ghosts. Briefly: Red cell ghost (RCG) uptake. It counts as in vitro ADME. Conditions: for RCG uptake: technetium complex, human erythrocyte ghosts. On the procedure:
RCG uptake is determined by incubation of a fixed amount of labelled complex with a range of ghost concentrations. The percentage of labelled complex […] is calculated for each ghost concentration to yield a single uptake figure expressed as %/mg protein.

The conditions of series [3]: neutral lipophilic technetium complex; cited from earlier work.
The nature of series [4]: Stability when handled in air. It counts as physicochemical.

As to `CC(=O)NCSCC(NCC(O)Cn1ccnc1[N+](=O)[O-])C(=O)NCC(=O)NCCN(C)C` (stereo not drawn) [HL11P], the “Hypoxic:oxic ratio” value in series [1] (0.5 hrs) was found to be 5.79; in series [1] (1.0 hrs), 2.91; in series [1] (2.0 hrs), 3.86; in series [1] (3.0 hrs), 3.60; in series [1] (4.0 hrs), 5.07; in series [1] (5.0 hrs), 3.26. For the same compound, the “Oxic SN (supernatant)” value in series [1] (0.5 hrs) is recorded as 25.1 cpm/ml (10^-7); in series [1] (1.0 hrs), 24.9 cpm/ml (10^-7); in series [1] (2.0 hrs), 25.5 cpm/ml (10^-7); in series [1] (3.0 hrs), 25.6 cpm/ml (10^-7); in series [1] (4.0 hrs) it was 26.0 cpm/ml (10^-7); in series [1] (5.0 hrs), 25.7 cpm/ml (10^-7). Also, the Oxic pellet in series [1] (0.5 hrs) was 0.42 cpm (×10^-5); in series [1] (1.0 hrs), 0.71 cpm (×10^-5); in series [1] (2.0 hrs), 0.99 cpm (×10^-5); in series [1] (3.0 hrs), 1.18 cpm (×10^-5); in series [1] (4.0 hrs), 1.40 cpm (×10^-5); in series [1] (5.0 hrs) it was 1.63 cpm (×10^-5). In addition, the “Hypoxic SN (supernatant)” value in series [1] (0.5 hrs) is given as 22.2 cpm/ml (10^-7); in series [1] (1.0 hrs), 22.3 cpm/ml (10^-7); in series [1] (2.0 hrs) it was 22.2 cpm/ml (10^-7); in series [1] (3.0 hrs) it was 22.4 cpm/ml (10^-7); in series [1] (4.0 hrs), 22.8 cpm/ml (10^-7); in series [1] (5.0 hrs) it was 22.7 cpm/ml (10^-7). The Hypoxic pellet in series [1] (0.5 hrs) is recorded as 2.15 cpm (×10^-5); in series [1] (1.0 hrs) it was 1.85 cpm (×10^-5); in series [1] (2.0 hrs) it was 3.33 cpm (×10^-5); in series [1] (3.0 hrs), 3.72 cpm (×10^-5); in series [1] (4.0 hrs), 6.22 cpm (×10^-5); in series [1] (5.0 hrs) it was 4.70 cpm (×10^-5).
`CC(=O)NCCNC(=O)CSCCSC1CCCCO1` (stereo not drawn) [HL15P, N-(2-Acetylaminoethyl)-2-(tetrahydropyran-2-ylthio)ethylthioacetamide]: the fraction unbound in series [2] is 1. In addition, in the series on human erythrocyte ghosts, the RCG uptake is 1.6 %/mg protein.
As for `CC(=O)NCCCNC(=O)CSCCSC1CCCCO1` (stereo not drawn) [HL60P, N-(3-acetylamino)propyl-2-(tetrahydropyran-2-ylthio)ethylthioacetamide], the fraction unbound in series [2] was 1. In addition, in the series on human erythrocyte ghosts, the RCG uptake worked out at 1.1 %/mg protein.
Taken in the same sequence, the figures for `CC(=NO)C(C)(C)NCCCNC(C)(C)C(C)=NO` [PnAO, reference compound] were 0.25 and 6.7 %/mg protein.
As to `O=C([O-])CN(CCN(CC(=O)[O-])CC(=O)[O-])CCN(CC(=O)[O-])CC(=O)[O-].[99Tc+4]` [^99m Tc-DTPA, reference compound], the “RCG uptake (in words)” value with human erythrocyte ghosts (99mTc complex) is on record as “excluded from the ghosts”.
On to `CC(C)(S)CNCCNCC(C)(C)S` [BAT, reference compound], for which, in series [2], the fraction unbound was 0.38. Further, the blood-brain barrier passage entry in series [3] is “can cross the blood-brain barrier”.
Turning to `CC(=O)NCCNC(=O)CCSCCSC1CCCCO1` (stereo not drawn) [HL49, N-(2-acetylaminoethyl)-3-[2-(tetrahydropyran-2-ylthio)ethylthio]propionamide], the fraction unbound in series [2] is 0.82. The RCG uptake with human erythrocyte ghosts came out at 3.6 %/mg protein.
Consider `CC(=O)NCCNC(=O)CSCCS` [HL 15D, N-(2-Acetylaminoethyl)-2-mercaptoethylthioacetamide], for which the “tendency to oxidise to the corresponding disulphide” value in series [4] is listed as “tended to oxidise to the corresponding disulphide if handled in air”.
